Measurements as given in ChEMBL document CHEMBL1145605, “Novel 2-imidazoles as potent and selective alpha1A adrenoceptor partial agonists” (Bioorg Med Chem Lett, 2008).

Key:
[1] = target: T1, Alpha-1D adrenergic receptor (Homo sapiens, UniProt P25100); experiment: Agonist activity at human cloned adrenergic Alpha-1D receptor expressed in CHO cells assessed as calcium mobilization by FLIPR; assay type: functional, cell-based
T1 sequence (P25100 whole entry): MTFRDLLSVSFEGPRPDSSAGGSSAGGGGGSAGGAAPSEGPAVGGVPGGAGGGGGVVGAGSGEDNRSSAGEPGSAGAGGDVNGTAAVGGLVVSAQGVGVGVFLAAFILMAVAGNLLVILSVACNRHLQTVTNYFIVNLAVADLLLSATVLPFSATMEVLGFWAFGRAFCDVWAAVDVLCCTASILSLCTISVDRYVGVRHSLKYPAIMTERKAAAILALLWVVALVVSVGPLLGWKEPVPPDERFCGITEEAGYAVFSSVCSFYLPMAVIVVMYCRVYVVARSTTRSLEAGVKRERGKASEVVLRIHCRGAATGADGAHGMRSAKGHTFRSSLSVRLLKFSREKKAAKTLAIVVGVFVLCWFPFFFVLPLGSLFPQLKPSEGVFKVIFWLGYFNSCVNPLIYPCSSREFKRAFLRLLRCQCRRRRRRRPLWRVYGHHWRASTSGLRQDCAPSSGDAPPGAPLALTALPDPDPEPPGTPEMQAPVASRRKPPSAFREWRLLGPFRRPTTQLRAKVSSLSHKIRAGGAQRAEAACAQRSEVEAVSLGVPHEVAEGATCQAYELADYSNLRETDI

[2] = target: T2, Alpha-1B adrenergic receptor (Homo sapiens, UniProt P35368); experiment: Agonist activity at human cloned adrenergic alpha-1B receptor expressed in CHO cells assessed as calcium mobilization by FLIPR; assay type: functional, cell-based
T2 sequence (P35368 whole entry): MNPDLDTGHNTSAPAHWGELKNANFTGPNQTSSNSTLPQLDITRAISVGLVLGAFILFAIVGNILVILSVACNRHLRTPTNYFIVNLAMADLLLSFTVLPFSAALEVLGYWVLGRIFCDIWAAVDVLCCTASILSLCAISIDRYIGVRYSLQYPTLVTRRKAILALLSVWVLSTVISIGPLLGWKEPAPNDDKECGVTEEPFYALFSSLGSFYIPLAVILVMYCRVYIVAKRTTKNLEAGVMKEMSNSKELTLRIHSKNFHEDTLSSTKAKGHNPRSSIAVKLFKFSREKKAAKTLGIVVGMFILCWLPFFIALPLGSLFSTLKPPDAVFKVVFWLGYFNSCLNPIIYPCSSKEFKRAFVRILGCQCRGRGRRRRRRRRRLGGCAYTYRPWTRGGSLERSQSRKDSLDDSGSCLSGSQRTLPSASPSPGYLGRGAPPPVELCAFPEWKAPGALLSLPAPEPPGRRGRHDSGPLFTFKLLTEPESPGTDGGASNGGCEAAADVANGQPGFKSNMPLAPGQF

[3] = target: T3, Alpha-1A adrenergic receptor (Homo sapiens) (UniProt P35348); experiment: Agonist activity at human cloned adrenergic alpha-1A receptor expressed in CHO cells assessed as calcium mobilization by FLIPR relative to phenylephrine; assay type: functional, cell-based
T3 sequence (whole entry): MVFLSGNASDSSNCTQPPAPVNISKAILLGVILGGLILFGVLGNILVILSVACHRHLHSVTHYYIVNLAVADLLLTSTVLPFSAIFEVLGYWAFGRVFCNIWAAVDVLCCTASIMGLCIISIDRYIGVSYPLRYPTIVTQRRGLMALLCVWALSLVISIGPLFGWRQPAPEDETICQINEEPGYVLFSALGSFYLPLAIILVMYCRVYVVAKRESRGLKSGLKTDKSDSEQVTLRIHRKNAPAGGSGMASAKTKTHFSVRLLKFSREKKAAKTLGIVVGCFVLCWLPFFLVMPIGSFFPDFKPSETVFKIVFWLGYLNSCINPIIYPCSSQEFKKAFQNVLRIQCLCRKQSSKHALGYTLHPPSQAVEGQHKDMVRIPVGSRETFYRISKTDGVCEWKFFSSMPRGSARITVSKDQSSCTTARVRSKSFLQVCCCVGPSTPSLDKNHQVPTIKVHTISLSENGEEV

CYP2D6 = CYP2D6 (Homo sapiens, UniProt P10635); experiment: Inhibition of CYP2D6 at 10 uM; assay type: ADME
[4] = target: Voltage-gated inwardly rectifying potassium channel KCNH2 (Homo sapiens, UniProt Q12809); experiment: Activity at human ERG at 10 uM
[5] = Intrinsic clearance in human liver microsomes; assay type: ADME, Microsome
[6] = target: T4, Alpha-1A adrenergic receptor (Homo sapiens, UniProt P35348); experiment: Agonist activity at human cloned adrenergic alpha-1A receptor expressed in CHO cells assessed as calcium mobilization by FLIPR; assay type: functional, cell-based
T4 sequence (P35348 whole entry): T3 sequence (whole entry)

[7] = Partition coefficient, log D at pH 7.4; assay type: physicochemical; settings: octanol/water
[8] = target: T5, Alpha-2A adrenergic receptor (Homo sapiens, UniProt P08913); experiment: Agonist activity at human cloned adrenergic alpha-2A receptor expressed in CHOK1 cells by beta-lactamase reporter gene assay; assay type: functional, cell-based, CHO-K1
T5 sequence (P08913 whole entry): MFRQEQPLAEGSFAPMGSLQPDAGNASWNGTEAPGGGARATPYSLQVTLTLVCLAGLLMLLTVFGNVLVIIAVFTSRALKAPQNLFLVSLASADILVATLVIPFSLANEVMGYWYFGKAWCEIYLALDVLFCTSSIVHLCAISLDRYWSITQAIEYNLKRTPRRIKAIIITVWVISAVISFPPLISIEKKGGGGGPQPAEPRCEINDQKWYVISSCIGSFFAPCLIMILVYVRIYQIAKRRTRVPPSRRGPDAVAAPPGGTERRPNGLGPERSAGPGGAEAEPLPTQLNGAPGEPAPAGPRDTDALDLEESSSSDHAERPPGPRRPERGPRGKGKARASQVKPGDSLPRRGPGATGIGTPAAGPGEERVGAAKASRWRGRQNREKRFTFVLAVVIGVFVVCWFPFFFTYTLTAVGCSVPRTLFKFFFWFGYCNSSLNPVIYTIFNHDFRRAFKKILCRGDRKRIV

CYP2C9 = CYP2C9 (Homo sapiens, UniProt P11712); experiment: Inhibition of CYP2C9 at 10 uM; assay type: ADME
CYP3A4 = CYP3A4 (Homo sapiens, UniProt P08684); experiment: Inhibition of CYP3A4 at 10 uM; assay type: ADME
CYP2C19 = CYP2C19 (Homo sapiens, UniProt P33261); experiment: Inhibition of CYP2C19 at 10 uM; assay type: ADME
[9] = Intrinsic clearance per 10^6 cells in human hepatocytes; assay type: ADME, cell-based, Liver, Hepatocyte

Sequence of CYP3A4 (P08684 whole entry): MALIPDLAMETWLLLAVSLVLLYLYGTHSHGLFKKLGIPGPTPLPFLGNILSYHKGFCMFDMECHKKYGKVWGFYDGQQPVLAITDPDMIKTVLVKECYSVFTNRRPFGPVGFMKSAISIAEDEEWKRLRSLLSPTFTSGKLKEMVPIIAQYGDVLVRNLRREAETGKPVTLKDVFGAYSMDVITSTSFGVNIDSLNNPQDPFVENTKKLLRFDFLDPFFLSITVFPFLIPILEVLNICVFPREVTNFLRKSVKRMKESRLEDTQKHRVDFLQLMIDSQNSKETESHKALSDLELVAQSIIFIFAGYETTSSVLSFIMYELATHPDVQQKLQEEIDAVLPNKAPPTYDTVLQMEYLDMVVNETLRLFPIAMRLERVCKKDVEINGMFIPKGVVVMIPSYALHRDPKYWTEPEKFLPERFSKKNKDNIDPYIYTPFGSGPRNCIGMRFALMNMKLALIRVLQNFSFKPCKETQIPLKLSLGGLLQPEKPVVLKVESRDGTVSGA
Sequence of CYP2D6 (P10635 whole entry): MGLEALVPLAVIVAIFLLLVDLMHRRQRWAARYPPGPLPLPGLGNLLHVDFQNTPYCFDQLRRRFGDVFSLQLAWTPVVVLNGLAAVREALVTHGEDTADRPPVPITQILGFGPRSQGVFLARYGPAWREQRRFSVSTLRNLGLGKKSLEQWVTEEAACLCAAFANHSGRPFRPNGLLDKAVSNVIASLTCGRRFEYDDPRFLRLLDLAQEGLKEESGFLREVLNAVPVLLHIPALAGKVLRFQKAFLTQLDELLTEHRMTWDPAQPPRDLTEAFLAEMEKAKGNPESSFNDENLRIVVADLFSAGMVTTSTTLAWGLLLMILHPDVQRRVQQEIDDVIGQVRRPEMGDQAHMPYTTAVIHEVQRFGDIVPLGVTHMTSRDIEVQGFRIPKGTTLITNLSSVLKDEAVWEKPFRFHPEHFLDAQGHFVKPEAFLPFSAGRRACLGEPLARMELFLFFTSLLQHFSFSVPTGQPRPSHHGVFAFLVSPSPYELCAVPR
Sequence of CYP2C9 (P11712 whole entry): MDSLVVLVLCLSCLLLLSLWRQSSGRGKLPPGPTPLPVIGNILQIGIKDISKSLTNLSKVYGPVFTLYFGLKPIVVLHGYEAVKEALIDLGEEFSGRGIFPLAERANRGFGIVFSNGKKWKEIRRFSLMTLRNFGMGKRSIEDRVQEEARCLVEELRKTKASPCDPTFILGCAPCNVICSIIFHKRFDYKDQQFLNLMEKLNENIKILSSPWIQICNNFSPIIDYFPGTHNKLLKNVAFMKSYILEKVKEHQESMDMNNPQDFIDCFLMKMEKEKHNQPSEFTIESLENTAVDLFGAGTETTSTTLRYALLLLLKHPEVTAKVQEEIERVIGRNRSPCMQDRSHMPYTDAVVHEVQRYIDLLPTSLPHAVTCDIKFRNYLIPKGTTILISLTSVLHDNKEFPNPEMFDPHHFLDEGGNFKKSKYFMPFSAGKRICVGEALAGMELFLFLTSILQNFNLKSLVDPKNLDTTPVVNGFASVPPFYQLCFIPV
Sequence of CYP2C19 (P33261 whole entry): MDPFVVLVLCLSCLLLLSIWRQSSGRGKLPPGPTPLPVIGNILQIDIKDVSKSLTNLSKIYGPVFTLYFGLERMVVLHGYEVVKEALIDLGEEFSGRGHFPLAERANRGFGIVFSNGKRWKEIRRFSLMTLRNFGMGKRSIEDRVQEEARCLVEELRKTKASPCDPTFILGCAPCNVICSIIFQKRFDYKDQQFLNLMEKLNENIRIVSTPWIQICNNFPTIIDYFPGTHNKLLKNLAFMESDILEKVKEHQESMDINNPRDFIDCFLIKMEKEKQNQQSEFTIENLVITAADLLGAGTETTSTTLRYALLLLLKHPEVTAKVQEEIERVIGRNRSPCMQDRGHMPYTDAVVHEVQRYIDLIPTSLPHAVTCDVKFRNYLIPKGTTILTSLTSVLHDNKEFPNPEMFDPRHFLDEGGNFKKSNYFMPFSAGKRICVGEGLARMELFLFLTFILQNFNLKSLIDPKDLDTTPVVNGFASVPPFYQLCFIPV
Sequence of Voltage-gated inwardly rectifying potassium channel KCNH2 (Q12809 whole entry): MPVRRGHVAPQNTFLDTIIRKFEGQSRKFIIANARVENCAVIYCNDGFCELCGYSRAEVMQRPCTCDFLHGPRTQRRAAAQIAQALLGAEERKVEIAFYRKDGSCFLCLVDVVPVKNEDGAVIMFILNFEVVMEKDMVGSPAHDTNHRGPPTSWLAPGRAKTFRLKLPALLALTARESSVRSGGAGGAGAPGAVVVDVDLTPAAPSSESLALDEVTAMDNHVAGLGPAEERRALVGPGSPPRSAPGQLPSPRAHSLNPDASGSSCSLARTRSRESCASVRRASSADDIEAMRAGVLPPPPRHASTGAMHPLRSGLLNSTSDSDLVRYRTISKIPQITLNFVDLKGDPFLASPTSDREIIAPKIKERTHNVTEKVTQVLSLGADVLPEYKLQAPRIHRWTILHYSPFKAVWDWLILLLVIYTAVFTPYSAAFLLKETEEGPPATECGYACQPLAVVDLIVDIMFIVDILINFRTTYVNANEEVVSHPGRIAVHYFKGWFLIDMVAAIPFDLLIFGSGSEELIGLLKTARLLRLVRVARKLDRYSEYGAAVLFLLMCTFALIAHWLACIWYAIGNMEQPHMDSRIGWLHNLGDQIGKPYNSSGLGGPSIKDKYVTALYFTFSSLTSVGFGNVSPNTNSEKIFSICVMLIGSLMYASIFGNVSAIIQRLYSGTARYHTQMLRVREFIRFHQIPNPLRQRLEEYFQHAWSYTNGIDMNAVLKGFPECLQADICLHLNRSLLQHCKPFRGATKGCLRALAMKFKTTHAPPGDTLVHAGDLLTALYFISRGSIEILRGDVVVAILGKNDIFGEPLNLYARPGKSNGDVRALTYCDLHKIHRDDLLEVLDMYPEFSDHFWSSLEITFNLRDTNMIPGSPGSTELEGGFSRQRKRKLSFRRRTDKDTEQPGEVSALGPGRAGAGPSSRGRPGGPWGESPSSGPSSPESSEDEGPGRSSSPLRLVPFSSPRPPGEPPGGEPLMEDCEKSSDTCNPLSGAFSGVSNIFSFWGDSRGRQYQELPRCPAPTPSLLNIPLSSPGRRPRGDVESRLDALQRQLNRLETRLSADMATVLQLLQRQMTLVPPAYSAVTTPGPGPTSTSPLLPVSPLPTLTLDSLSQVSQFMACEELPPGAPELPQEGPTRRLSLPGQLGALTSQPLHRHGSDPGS

CS(=O)(=O)Nc1c(Cl)ccc2c1CCCC2c1ncc[nH]1 (stereo not drawn)
EC50 [1]: > 10 µM
EC50 [2]: > 10 µM
Emax [3]: 61%
inhibition at 10 µM (CYP2D6): < 25%
Activity [4]: 0%
microsomal CLint [5]: < 7 µL/min/mg
EC50 [6]: 0.043 µM
logD [7]: 1.5
EC50 [8]: > 10 µM
inhibition at 10 µM (CYP2C9): < 25%
inhibition at 10 µM (CYP3A4): < 25%
inhibition at 10 µM (CYP2C19): < 25%
hepatocyte CLint [9]: < 5 µL/min/1e6 cells
